Experimental data taken from patent US20070128217A1 (priority 2003, published 2007).

Experiments:
[1] = test system: antibodies in sera from SARS patients (sera 1a, 1b, 2, 6, 37, 62, London, SARS-yellow, SARS-green); format: binding, human; parameters: Binding of serum 6 to linear peptides of protein X1 of SARS-CoV Urbani / Binding of serum 37 to linear peptides of protein X1 of SARS-CoV Urbani / Binding of serum 6 to looped/cyclic peptide (PEPSCAN-ELISA) / Binding of serum 37 to looped/cyclic peptide (PEPSCAN-ELISA) / Binding of serum 37 to looped/cyclic peptides of protein X1 of SARS-CoV Urbani / Binding of serum 6 to linear peptides of protein X2 / Binding of serum 37 to linear peptides of protein X2 / Binding of serum 37 to looped/cyclic peptides of protein X2 of SARS-CoV Urbani / Binding of serum 6 to linear peptides of protein M of SARS-CoV Urbani / Binding of serum 37 to linear peptides of protein M of SARS-CoV Urbani / Binding of serum 6 to looped/cyclic peptides of protein M of SARS-CoV Urbani / Binding of serum 37 to looped/cyclic peptides of protein M of SARS-CoV Urbani / Binding of serum 6 to linear peptides of protein X3 of SARS-CoV Urbani / Binding of serum 37 to linear peptides of protein X3 of SARS-CoV Urbani / Binding of serum 37 to looped/cyclic peptides of protein X3 of SARS-CoV Urbani / Binding of serum 6 to linear peptides of protein X4 of SARS-CoV Urbani / Binding of serum 37 to linear peptides of protein X4 of SARS-CoV Urbani / Binding of serum 37 to looped/cyclic peptides of protein X4 of SARS-CoV Urbani / Binding of serum 6 to linear peptides of protein X5 of SARS-CoV Urbani / Binding of serum 37 to linear peptides of protein X5 of SARS-CoV Urbani / Binding of serum 37 to looped/cyclic peptides of protein X5 of SARS-CoV Urbani / Binding of serum 6 to linear peptides of protein N of SARS-CoV Urbani / Binding of serum 37 to linear peptides of protein N of SARS-CoV Urbani / Binding of serum 6 to linear peptide (PEPSCAN-ELISA) / Binding of serum 1a to looped/cyclic peptides of protein N of SARS-CoV Urbani / Binding of serum 1b to looped/cyclic peptides of protein N of SARS-CoV Urbani / Binding of serum 2 to looped/cyclic peptides of protein N of SARS-CoV Urbani / Binding of serum 6 to looped/cyclic peptides of protein N of SARS-CoV Urbani / Binding of serum 37 to looped/cyclic peptides of protein N of SARS-CoV Urbani / Binding of serum 62 to looped/cyclic peptides of protein N of SARS-CoV Urbani / Binding of serum London to looped/cyclic peptides of protein N of SARS-CoV Urbani / Binding of serum SARS-green to looped/cyclic peptides of protein N of SARS-CoV Urbani: unit not given here
[2] = test system: control sera (pooled serum of ten healthy LUMC hospital workers; commercial negative donor pooled serum from the Dutch bloodbank); format: binding, human; parameters: Binding of Control serum LUMC to linear peptides / Binding of Control serum Blood-bank to linear peptides / Binding of Control serum LUMC to looped peptides / Binding of Control Serum Blood-Bank to Looped peptides / Binding of Control serum LUMC to linear peptides of the protein M of SARS-CoV Urbani / Binding of Control serum Blood-bank to linear peptides of the protein M of SARS-CoV Urbani / Binding of Control serum LUMC to looped peptides of the protein M of SARS-CoV Urbani / Binding of Control Serum Blood-Bank to Looped peptides of the protein M of SARS-CoV Urbani: unit not given here
[3] = test system: rabbit serum obtained by immunizing a rabbit with the SARS-CoV strain Frankfurt 1; format: binding; parameters: Binding of a rabbit serum to linear peptides / Binding of a rabbit serum to looped peptides / Rabbit serum linear peptides / Rabbit serum looped peptides / Binding of a rabbit serum to linear peptides of protein N of SARS-CoV Urbani (Rabbit serum linear peptides) / Binding of a rabbit serum to looped/cyclic peptides of protein N of SARS-CoV Urbani (Rabbit serum looped peptides): unit not given here

Row | Sequence | Binding of serum 1a to linear peptides of protein X1 of SARS-CoV Urbani [1] | Binding of serum 1a to looped/cyclic peptides of protein X1 of SARS-CoV Urbani [1] | Binding of serum 1b to linear peptides of protein X1 of SARS-CoV Urbani [1] | Binding of serum 1b to looped/cyclic peptides of protein X1 of SARS-CoV Urbani [1] | Binding of serum 2 to linear peptides of protein X1 of SARS-CoV Urbani [1] | Binding of serum 2 to looped/cyclic peptides of protein X1 of SARS-CoV Urbani [1] | Binding of serum 6 to linear peptides of protein X1 of SARS-CoV Urbani [1] | Binding of serum 6 to looped/cyclic peptides of protein X1 of SARS-CoV Urbani [1] | Binding of serum 37 to linear peptides of protein X1 of SARS-CoV Urbani [1] | Binding of serum 37 to looped/cyclic peptides of protein X1 of SARS-CoV Urbani [1] | Binding of serum 62 to linear peptides of protein X1 of SARS-CoV Urbani [1] | Binding of serum 62 to looped/cyclic peptides of protein X1 of SARS-CoV Urbani [1] | Binding of serum London to linear peptides of protein X1 of SARS-CoV Urbani [1] | Binding of serum London to looped/cyclic peptides of protein X1 of SARS-CoV Urbani [1] | Binding of serum SARS-green to linear peptides of protein X1 of SARS-CoV Urbani [1] | Binding of serum SARS-green to looped/cyclic peptides of protein X1 of SARS-CoV Urbani [1] | Binding of Control Serum Blood-Bank to Looped peptides [2] | Binding of Control serum Blood-bank to linear peptides [2] | Binding of Control serum LUMC to linear peptides [2] | Binding of Control serum LUMC to looped peptides [2] | other results
1 | VVTEGDGISTPKLKE | 0.5 | 0.3 | 0.4 | 0.3 | 0.3 | 0.1 | 0.2 | 0.2 | 0.4 | 0.3 | 0.3 | 0.3 | 0.3 | 0.2 | 0.1 | 0.1 | 0.3 | 0.3 | 0.2 | 0.3 | Binding of serum SARS-yellow to linear peptides of protein X1 of SARS-CoV Urbani [1]: 0.1; Binding of serum SARS-yellow to looped/cyclic peptides of protein X1 of SARS-CoV Urbani [1]: 0.2; Binding of a rabbit serum to linear peptides [3]: 0.1; Binding of a rabbit serum to looped peptides [3]: 0.4
2 | VLPFHRWHTMVQTCT | – | – | – | – | – | – | – | – | – | – | – | – | – | – | – | – | 0.6 | 0.6 | 0.5 | 0.0 | Binding of serum 1a to linear peptides of protein X5 of SARS-CoV Urbani [1]: 0.8; Binding of serum 1a to looped/cyclic peptides of protein X5 of SARS-CoV Urbani [1]: 0.7; Binding of serum 1b to linear peptides of protein X5 of SARS-CoV Urbani [1]: 0.6; Binding of serum 1b to looped/cyclic peptides of protein X5 of SARS-CoV Urbani [1]: 0.5; Binding of serum 2 to linear peptides of protein X5 of SARS-CoV Urbani [1]: 0.7; Binding of serum 2 to looped/cyclic peptides of protein X5 of SARS-CoV Urbani [1]: 0.7; Binding of serum 6 to linear peptides of protein X5 of SARS-CoV Urbani [1]: 0.5; Binding of serum 6 to looped/cyclic peptides of protein X5 of SARS-CoV Urbani [1]: 0.4; Binding of serum 37 to linear peptides of protein X5 of SARS-CoV Urbani [1]: 0.7; Binding of serum 37 to looped/cyclic peptides of protein X5 of SARS-CoV Urbani [1]: 0.5; Binding of serum 62 to linear peptides of protein X5 of SARS-CoV Urbani [1]: 0.7; Binding of serum 62 to looped/cyclic peptides of protein X5 of SARS-CoV Urbani [1]: 0.3; Binding of serum London to linear peptides of protein X5 of SARS-CoV Urbani [1]: 0.8; Binding of serum London to looped/cyclic peptides of protein X5 of SARS-CoV Urbani [1]: 0.2; Binding of serum SARS-green to linear peptides of protein X5 of SARS-CoV Urbani [1]: 0.6; Binding of serum SARS-green to looped/cyclic peptides of protein X5 of SARS-CoV Urbani [1]: 1.4; Binding of serum SARS-yellow to linear peptides of protein X5 of SARS-CoV Urbani [1]: 0.4; Binding of serum SARS-yellow to looped/cyclic peptides of protein X5 of SARS-CoV Urbani [1]: 0.3; Rabbit serum linear peptides [3]: 0.6; Rabbit serum looped peptides [3]: 0.0
3 | KDYVVVHGYFTEVYY | 0.7 | 0.5 | 0.6 | 0.4 | 0.5 | 0.4 | 0.4 | 0.2 | 0.6 | 0.6 | 0.5 | 0.5 | 0.2 | 0.2 | 0.2 | 0.2 | 0.5 | 0.5 | 0.6 | 0.5 | Binding of serum SARS-yellow to linear peptides of protein X1 of SARS-CoV Urbani [1]: 0.3; Binding of serum SARS-yellow to looped/cyclic peptides of protein X1 of SARS-CoV Urbani [1]: 0.5; Binding of a rabbit serum to linear peptides [3]: 0.1; Binding of a rabbit serum to looped peptides [3]: 0.5
